Data as given in patent publication US20050282788A1, “Pharmaceutical compositions comprising silicones and two solubilized active principles” (GALDERMA S.A., priority 2004, published 2005).

How the values were obtained:
[1] = Stability of calcitriol in the (ethanol/cyclopentasiloxane) mixture (HPLC assay against a reference); type: physicochemical; conditions: 30 ppm calcitriol, 0.02% BHT
Protocol: (§1) The stability of calcitriol was tested in various solvents, including ethanol 100 and a 75%/25% ethanol 100/cyclomethicone mixture. b) Stability of Calcitriol in the (Ethanol/Cyclopentasiloxane) Mixture A 30 ppm solution of calcitriol in absolute ethanol to 100% is prepared in the presence of 0.02% of BHT. At the starting time (TO) the calcitriol concentration is taken to be 100%.

[2] = Stability of calcitriol in ethanol (HPLC assay against a reference); type: physicochemical; conditions: 30 ppm calcitriol in absolute ethanol, 0.02% BHT
Protocol: as §1, with “a)” for “b)”, “Ethanol:” for “the (Ethanol/Cyclopentasiloxane) Mixture”, “butylated hydroxytoluene (BHT).” for “BHT.”, “(T0)” for “(TO)”

SMILES: C=C1/C(=C\C=C2/CCC[C@]3(C)[C@@H]([C@H](C)CCCC(C)(C)O)CC[C@@H]23)C[C@@H](O)C[C@@H]1O [calcitriol]
- calcitriol concentration (T0 taken to be 100%) ([1]; +4° C., T2 weeks): 99.2%
- calcitriol concentration (T0 taken to be 100%) ([1]; +4° C., T3 weeks): 99.6%
- calcitriol concentration (T0 taken to be 100%) ([1]; +4° C., T4 weeks): 97.5%
- calcitriol concentration (T0 taken to be 100%) ([1]; +30° C., T2 weeks): 93.8%
- calcitriol concentration (T0 taken to be 100%) ([1]; +30° C., T4 weeks): 93.3%
- calcitriol concentration (T0 taken to be 100%) ([1]; −18° C., T2 weeks): 100.4%
- calcitriol concentration (T0 taken to be 100%) ([1]; −18° C., T3 weeks): 101.3%
- calcitriol concentration (T0 taken to be 100%) ([1]; −18° C., T4 weeks): 99.2%
- calcitriol concentration (T0 taken to be 100%) ([2]; +4° C., T1 week): 97.7%
- calcitriol concentration (T0 taken to be 100%) ([2]; +4° C., T2 weeks): 98.6%
- calcitriol concentration (T0 taken to be 100%) ([2]; +4° C., T3 weeks): 98.1%
- calcitriol concentration (T0 taken to be 100%) ([2]; +4° C., T4 weeks): 97.7%
- calcitriol concentration (T0 taken to be 100%) ([2]; +30° C., T2 weeks): 93.4%
- calcitriol concentration (T0 taken to be 100%) ([2]; +30° C., T4 weeks): 93.0%
- calcitriol concentration (T0 taken to be 100%) ([2]; −18° C., T1 week): 100.9%
- calcitriol concentration (T0 taken to be 100%) ([2]; −18° C., T2 weeks): 100.5%
- calcitriol concentration (T0 taken to be 100%) ([2]; −18° C., T3 weeks): 99.5%
- calcitriol concentration (T0 taken to be 100%) ([2]; −18° C., T4 weeks): 99.5%
